Measurements taken from publication PMC7252619 (PLoS ONE, 2020).
Like-named read-outs stand apart in the source and are kept apart here.

Assays:
CK1d = molecular target: T1, CK1d (Homo sapiens, UniProt P48730); assay: Kinase activity test (ReactionBiology), % enzyme activity relative to DMSO; assay type: biochemical; settings: CK1d
T1 construct: purchased ReactionBiology

VEGFR2 = VEGFR2 (Homo sapiens, UniProt P35968); assay: as above; assay type: biochemical; parameters: purchased ReactionBiology; settings: VEGFR2, Average;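 note: VEGFR2 was one member of a ten-kinase screening panel testing marketed FDA-approved drugs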
[1] = 1 uM, Average, read-out: % Enzyme Activity (relative to DMSO controls), Average
[2] = 1 uM, replicate Data 1, read-out: % Enzyme Activity (relative to DMSO controls), Data 1
[3] = 1 uM, replicate Data 2, read-out: % Enzyme Activity (relative to DMSO controls), Data 2
[4] = 10 uM, Average, read-out: % Enzyme Activity (relative to DMSO controls), Average
[5] = 10 uM, replicate Data 1, read-out: % Enzyme Activity (relative to DMSO controls), Data 1
[6] = 10 uM, replicate Data 2, read-out: % Enzyme Activity (relative to DMSO controls), Data 2

T1 sequence (P48730 whole entry): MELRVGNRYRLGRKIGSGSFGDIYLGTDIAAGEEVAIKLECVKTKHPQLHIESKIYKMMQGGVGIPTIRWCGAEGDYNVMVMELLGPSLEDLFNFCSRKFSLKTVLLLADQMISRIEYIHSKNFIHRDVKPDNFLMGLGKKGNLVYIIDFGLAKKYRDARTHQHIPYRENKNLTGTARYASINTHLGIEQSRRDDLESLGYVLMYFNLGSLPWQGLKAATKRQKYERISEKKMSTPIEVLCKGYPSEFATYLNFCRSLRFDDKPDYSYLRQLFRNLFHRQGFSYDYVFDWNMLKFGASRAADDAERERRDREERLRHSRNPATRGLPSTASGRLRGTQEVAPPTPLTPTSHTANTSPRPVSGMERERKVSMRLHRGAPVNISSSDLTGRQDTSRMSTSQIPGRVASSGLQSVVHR
Chain of VEGFR2 (P35968 20-1356): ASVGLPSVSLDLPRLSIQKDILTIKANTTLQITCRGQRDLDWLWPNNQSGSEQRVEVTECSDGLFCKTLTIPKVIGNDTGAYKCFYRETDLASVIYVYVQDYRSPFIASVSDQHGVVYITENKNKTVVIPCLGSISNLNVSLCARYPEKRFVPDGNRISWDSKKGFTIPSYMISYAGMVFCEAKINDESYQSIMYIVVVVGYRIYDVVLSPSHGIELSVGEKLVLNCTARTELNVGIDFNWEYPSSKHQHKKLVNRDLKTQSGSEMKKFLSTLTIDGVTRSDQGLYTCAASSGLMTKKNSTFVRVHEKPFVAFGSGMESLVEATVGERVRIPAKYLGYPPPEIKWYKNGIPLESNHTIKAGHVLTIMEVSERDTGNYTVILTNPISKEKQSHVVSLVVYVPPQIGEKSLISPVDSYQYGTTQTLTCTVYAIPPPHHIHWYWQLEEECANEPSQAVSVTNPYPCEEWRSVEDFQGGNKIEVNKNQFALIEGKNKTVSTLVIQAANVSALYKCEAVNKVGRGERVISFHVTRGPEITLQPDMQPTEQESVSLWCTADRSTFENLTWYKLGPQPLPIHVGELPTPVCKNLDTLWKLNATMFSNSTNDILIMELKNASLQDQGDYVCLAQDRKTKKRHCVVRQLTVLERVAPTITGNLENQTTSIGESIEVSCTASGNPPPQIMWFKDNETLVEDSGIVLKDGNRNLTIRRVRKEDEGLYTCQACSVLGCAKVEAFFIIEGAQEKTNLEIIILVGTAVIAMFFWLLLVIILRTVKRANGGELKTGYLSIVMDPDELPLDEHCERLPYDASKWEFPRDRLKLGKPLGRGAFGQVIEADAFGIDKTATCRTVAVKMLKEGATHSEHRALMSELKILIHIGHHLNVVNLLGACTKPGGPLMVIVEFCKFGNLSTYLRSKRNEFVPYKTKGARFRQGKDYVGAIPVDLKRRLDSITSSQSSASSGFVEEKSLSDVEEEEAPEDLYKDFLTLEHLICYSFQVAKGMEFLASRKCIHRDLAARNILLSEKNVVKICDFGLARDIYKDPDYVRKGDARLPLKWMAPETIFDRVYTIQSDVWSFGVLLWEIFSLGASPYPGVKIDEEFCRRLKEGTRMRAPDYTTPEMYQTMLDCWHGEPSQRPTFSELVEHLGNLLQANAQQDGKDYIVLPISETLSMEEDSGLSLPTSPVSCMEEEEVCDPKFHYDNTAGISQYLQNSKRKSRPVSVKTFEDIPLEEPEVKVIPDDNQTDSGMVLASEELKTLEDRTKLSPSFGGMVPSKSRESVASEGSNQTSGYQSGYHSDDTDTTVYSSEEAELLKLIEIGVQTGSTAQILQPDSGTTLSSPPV

CC(C)Nc1cccnc1N1CCN(C(=O)c2cc3cc(NS(C)(=O)=O)ccc3[nH]2)CC1 [Delavirdine]
% Enzyme Activity (relative to DMSO controls), Average (CK1d; 10 uM, Average): 101.06%

CNCCCN1c2ccccc2CCc2ccccc21 [Desipramine]
% Enzyme Activity (relative to DMSO controls), Average (VEGFR2; 1 uM): 96.96%
% Enzyme Activity (relative to DMSO controls), Average (VEGFR2; 10 uM): 89.29%
% Enzyme Activity (relative to DMSO controls), Average (CK1d; 10 uM, Average): 133.63%

CC1=Nc2ccc(Cl)cc2S(=O)(=O)N1 [Diazoxide]
% Enzyme Activity (relative to DMSO controls), Average (CK1d; 1 uM, Average): 95.10%
% Enzyme Activity (relative to DMSO controls), Data 1 (CK1d; 1 uM, replicate Data 1): 99.58%
% Enzyme Activity (relative to DMSO controls), Data 2 (CK1d; 1 uM, replicate Data 2): 90.62%
% Enzyme Activity (relative to DMSO controls), Average (CK1d; 10 uM, Average): 97.15%
% Enzyme Activity (relative to DMSO controls), Data 1 (CK1d; 10 uM, replicate Data 1): 96.56%
% Enzyme Activity (relative to DMSO controls), Data 2 (CK1d; 10 uM, replicate Data 2): 97.73%

CCC1=C(C)CN(C(=O)NCCc2ccc(S(=O)(=O)NC(=O)N[C@H]3CC[C@H](C)CC3)cc2)C1=O [Glimepiride]
% Enzyme Activity (relative to DMSO controls), Average (CK1d; 1 uM, Average): 106.25%
% Enzyme Activity (relative to DMSO controls), Data 1 (CK1d; 1 uM, replicate Data 1): 107.91%
% Enzyme Activity (relative to DMSO controls), Data 2 (CK1d; 1 uM, replicate Data 2): 104.59%
% Enzyme Activity (relative to DMSO controls), Average (CK1d; 10 uM, Average): 89.28%
% Enzyme Activity (relative to DMSO controls), Data 1 (CK1d; 10 uM, replicate Data 1): 92.55%
% Enzyme Activity (relative to DMSO controls), Data 2 (CK1d; 10 uM, replicate Data 2): 86%

CO[C@@]12[C@H](COC(N)=O)C3=C(C(=O)C(C)=C(N)C3=O)N1C[C@@H]1N[C@@H]12 [Mitomycin]
% Enzyme Activity (relative to DMSO controls), Average (CK1d; 1 uM, Average): 98.48%
% Enzyme Activity (relative to DMSO controls), Data 1 (CK1d; 1 uM, replicate Data 1): 100.68%
% Enzyme Activity (relative to DMSO controls), Data 2 (CK1d; 1 uM, replicate Data 2): 96.28%
% Enzyme Activity (relative to DMSO controls), Average (CK1d; 10 uM, Average): 158.59%
% Enzyme Activity (relative to DMSO controls), Data 1 (CK1d; 10 uM, replicate Data 1): 209.38%
% Enzyme Activity (relative to DMSO controls), Data 2 (CK1d; 10 uM, replicate Data 2): 107.8%

CCCCNc1ccc(C(=O)OCCN(C)C)cc1 [Tetracaine]
% Enzyme Activity (relative to DMSO controls), Average (CK1d; 1 uM, Average): 110.04%
% Enzyme Activity (relative to DMSO controls), Data 1 (CK1d; 1 uM, replicate Data 1): 103.65%
% Enzyme Activity (relative to DMSO controls), Data 2 (CK1d; 1 uM, replicate Data 2): 116.43%
% Enzyme Activity (relative to DMSO controls), Average (CK1d; 10 uM, Average): 118.78%
% Enzyme Activity (relative to DMSO controls), Data 1 (CK1d; 10 uM, replicate Data 1): 119.29%
% Enzyme Activity (relative to DMSO controls), Data 2 (CK1d; 10 uM, replicate Data 2): 118.26%

Cc1ccc(C(=O)c2cc(O)c(O)c([N+](=O)[O-])c2)cc1 [Tolcapone, reference compound]
remaining activity at 1 µM (CK1d; [1]): 91.7%
remaining activity at 1 µM (CK1d; [2]): 91.5%
remaining activity at 1 µM (CK1d; [3]): 91.9%
remaining activity at 10 µM (CK1d; [4]): 35.6%
remaining activity at 10 µM (CK1d; [5]): 33.2%
remaining activity at 10 µM (CK1d; [6]): 38%
remaining activity at 1 µM (CK1d; compound 1μM, relative to DMSO controls, read-out: % Enzyme activity at 1μM): 91.7%
remaining activity at 10 µM (CK1d; compound 10μM, relative to DMSO controls, read-out: % Enzyme activity at 10μM): 35.6%

CCCc1nc(C)c2c(=O)[nH]c(-c3cc(S(=O)(=O)N4CCN(CC)CC4)ccc3OCC)nn12 [Vardenafil]
remaining activity at 1 µM (CK1d; [1]): 102%
remaining activity at 1 µM (CK1d; [2]): 100%
remaining activity at 1 µM (CK1d; [3]): 104%
remaining activity at 10 µM (CK1d; [4]): 110%
remaining activity at 10 µM (CK1d; [5]): 107%
remaining activity at 10 µM (CK1d; [6]): 112%
